Tests used:
[1] = system: PC-3 cells; experiment: Apoptosis induction in PC-3 cells (T1/2, time for 50% apoptotic death; cell viability / Cell Death Detection ELISA); conditions: for change in potency in apoptosis induction on replacement of —SO2NH2 with —CONH2: carboxamide versus sulfonamide counterpart, FIG. 10A; for T½ (h) 50 μM: time required for eliciting 50% apoptotic death; for classification as fast-acting or slow-acting apoptosis inducer: prostate cancer cells, FIG. 8
Experimental: Induction of apoptosis was also assessed by using a “Cell Death Detection ELISA” assay (Boehringer-Mannheim) following the manufacturer's instructions. This test is based on the quantitative determination of cytoplasmic histone-associated DNA fragments in the form of mono- and oligonucleosomes after induced apoptotic death. […] Both floating and adherent cells were collected, and cell lysates equivalent to 10^4 cells were used for the ELISA analysis.
Induction of apoptosis was also assessed by using a “Cell Death Detection ELISA” assay (Boehringer-Mannheim) by following the manufacturer's instructions. This test is based on the quantitative determination of cytoplasmic histone-associated DNA fragments in the form of mono- and oligonucleosomes after induced apoptotic death. […] Both floating and adherent cells were collected, and cell lysates equivalent to 10^4 cells were used in the ELISA.
Both adherent and floating cells were combined for the assessment of cell viability. Cell viability was determined by trypan blue exclusion.

[2] = system: Akt and ERK2 phosphorylation in PC-3 cells; experiment: Western blot of Akt and ERK2 phosphorylation status; format: cell-based, human
Experimental: Immunoblotting For western blot analysis, cells were washed in phosphate-buffered saline (PBS), resuspended in sodium dodecyl sulfate (SDS) gel-loading buffer consisting of 50 mM Tris-HCl, pH 6.8, 100 mM dithiothreitol, 2% SDS, 0.1% bromophenol blue, and 10% glycerol, sonicated with an ultrasonic sonicator for 5 seconds (Virsonic 300, 4.5 output), and boiled for 5 minutes. After a brief centrifugation, equivalent protein amounts (60-100 μg) from the soluble fractions were resolved in 10% SDS-polyacrylamide gels on a Minigel apparatus and transferred to a nitrocellulose membrane in a semidry transfer cell. The transblotted membrane was washed twice with Tris-buffered saline (TBS) containing 0.05% Tween 20 (TBST). After blocking with TBS containing 5% nonfat milk for 60 minutes, the membrane was incubated with the appropriate primary antibody (anti-COX-2, anti-Akt, anti-P-^473Ser Akt, anti-ERK, and anti-phospho-ERK antibodies diluted 1:1,000; anti-actin monoclonal antibody, diluted 1:5,000) in TBS-1% nonfat milk at 4° C. for 12 hours and washed twice with TBST. The membranes were probed with goat anti-rabbit IgG-horseradish peroxidase conjugates (diluted 1:5,000) for 1 hour at room temperature and washed twice with TBST. Bands were visualized by enhanced chemiluminescence.
Immunoblotting. […]

[3] = system: DU-145 cells; experiment: Apoptosis induction in DU-145 cells; format: cell-based, human; conditions: DU-145 (p53−/−), compared with PC-3; data not shown
[4] = system: LNCaP cells; experiment: Apoptosis induction in LNCaP cells; format: cell-based, human; conditions: LNCaP (p53+/+), compared with PC-3; data not shown
[5] = system: PGE2 production; experiment: Prostaglandin E2 (PGE2) immunoassay; format: cell-based, human; conditions: 50 μM; 1F2, 3D9, 7D9 cells and parental PC-3 cells; data not shown
Experimental: Culture medium was changed, and 24 hours later conditioned medium was collected to assay PGE2. Conditioned medium was centrifuged to remove particulate material, and then cells were collected by scraping to determine the protein concentration. PGE2 was assayed in 100 μL medium in triplicate according to the manufacturer's instruction (R&D Systems, Inc.; Minneapolis, Minn.). PGE2 data were normalized to protein content.

[6] = biological target: T1, COX-2 (Homo sapiens, UniProt P35354); conditions: Table 1; read-out: IC50 (μM), COX-2 inhibition; cited from earlier work
T1 sequence (P35354 18-604): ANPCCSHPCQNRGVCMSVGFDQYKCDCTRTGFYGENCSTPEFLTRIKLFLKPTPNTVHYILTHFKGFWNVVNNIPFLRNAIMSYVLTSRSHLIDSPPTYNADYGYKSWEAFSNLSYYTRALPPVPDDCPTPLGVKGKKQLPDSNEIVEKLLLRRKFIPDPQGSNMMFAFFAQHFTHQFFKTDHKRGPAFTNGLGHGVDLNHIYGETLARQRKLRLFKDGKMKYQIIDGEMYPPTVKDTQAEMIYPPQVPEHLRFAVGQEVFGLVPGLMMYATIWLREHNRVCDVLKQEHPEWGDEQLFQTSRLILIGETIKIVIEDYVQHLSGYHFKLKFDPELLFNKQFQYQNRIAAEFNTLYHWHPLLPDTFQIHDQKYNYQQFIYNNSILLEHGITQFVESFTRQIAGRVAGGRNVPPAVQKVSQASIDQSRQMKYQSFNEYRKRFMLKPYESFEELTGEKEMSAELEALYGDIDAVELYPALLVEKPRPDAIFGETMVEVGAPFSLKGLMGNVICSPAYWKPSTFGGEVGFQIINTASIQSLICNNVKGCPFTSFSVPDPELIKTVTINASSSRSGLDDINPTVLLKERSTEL

**Q.** For “4-[5-(3,4-Dichlorophenyl)-3-(trifluoromethyl)-1H-pyrazol-1-yl]benzene-carboxyamide [Compound 33b]”, which “change in potency in apoptosis induction on replacement of —SO2NH2 with —CONH2” value (“change in potency in apoptosis induction” below) [1] is on record?
**A.** The value was “no appreciable change”.

**Q.** For `NS(=O)(=O)c1ccc(-n2nc(C(F)(F)F)cc2-c2ccccc2Cl)cc1` [Example 13], which “T½ (h) 50 μM” value ([1]; 50 μM, Table 1) is on record?
**A.** Its value is 4 h.

**Q.** With “4-[5-(2,4-Dimethylphenyl)-3-(trifluoromethyl)-1H-pyrazol-1-yl]benzene-carboxyamide [Compound 37b]” as the compound, how does the “change in potency in apoptosis induction” value [1] read?
**A.** Its value is “no appreciable change”.

**Q.** For `Cc1ccc(F)cc1F` [Compound 4b], which “T½ (h) 50 μM” value ([1]; 50 μM, Table 2) is on record?
**A.** The value was over 100 h.

**Q.** Which “change in potency in apoptosis induction” value [1] does the source give for “4-[5-(2,4-Dichlorophenyl)-3-(trifluoromethyl)-1H-pyrazol-1-yl]benzene-carboxyamide [Compound 31b]” here?
**A.** The value was “no appreciable change”.

**Q.** For `NS(=O)(=O)c1ccc(C2=C(c3ccc(Cl)c(Cl)c3)COC2=O)cc1` [Compound 49b, 3-(4-sulfamoylphenyl)-4-(3′,4′-dichlorophenyl)-2(5H)-furanone], which “T1/2 at 50 μM” value ([1]; 50 μM, PC-3 cells) is on record?
**A.** The value was 15 h.

**Q.** Which “phosphorylation status of Akt and ERK2” value ([2]; PC-3 cells) does the source give for `NS(=O)(=O)c1ccc(-n2nc(C(F)(F)F)cc2-c2ccc(Cl)cc2)cc1` [1a, 4-[5-(4-Chlorophenyl)-3-(trifluoromethyl)-1H-pyrazol-1-yl]benzenesulfonamide] here?
**A.** The value was “concurrent dephosphorylation of Akt and ERK2”.

**Q.** And the “susceptibility to apoptosis induction” value [3]?
**A.** The value was “susceptibility identical to that of PC-3 cells”.

**Q.** And the “susceptibility to apoptosis induction” value [4]?
**A.** Its value is “susceptibility identical to that of PC-3 cells”.

**Q.** Which “T½ (h) 50 μM” value ([1]; 50 μM, Table 2) does the source give for `Cc1cccs1` [Compound 27b] here?
**A.** The value was over 100 h.

**Q.** With `COc1ccc(C)c(OC)c1` [Compound 22b] as the compound, how does the “T½ (h) 50 μM” value ([1]; 50 μM, Table 2) read?
**A.** The value was over 100 h.

**Q.** For `Cc1ccc(-c2cc(C(F)(F)F)nn2-c2ccc(S(N)(=O)=O)cc2)c(C)c1` [Example 9], which “T½ (h) 50 μM” value ([1]; 50 μM, Table 1) is on record?
**A.** Its value is 2 h.

**Q.** Which “phosphorylation of Akt and ERK2” value ([2]; all four antisense COX-2 clones) does the source give for `Cc1ccc(-c2cc(C(F)(F)F)nn2-c2ccc(S(N)(=O)=O)cc2)cc1` [celecoxib, 4-[5-(4-methylphenyl)-3-(trifluoromethyl)-1H-pyrazol-1-yl]benzenesulfonamide, reference compound] here?
**A.** Its value is “decreased phosphorylation of Akt and ERK2”.

**Q.** What about the “time to 50% decrease in cell viability” value ([1]; 50 μM, PC-3 cells) of the same compound?
**A.** Its value is 2 h.

**Q.** What about the “T½ (h) 50 μM” value ([1]; 50 μM, Table 2) of the same compound?
**A.** Its value is 2 h.

**Q.** What about the “susceptibility to apoptosis induction” value [3] of the same compound?
**A.** The value was “susceptibility identical to that of PC-3 cells”.

**Q.** And the “susceptibility to apoptosis induction” value [4]?
**A.** Its value is “susceptibility identical to that of PC-3 cells”.

**Q.** With `NS(=O)(=O)c1ccc(-n2nc(C(F)(F)F)cc2-c2ccc(Cl)cc2Cl)cc1` [Example 12] as the compound, how does the “T½ (h) 50 μM” value ([1]; 50 μM, Table 1) read?
**A.** Its value is 2 h.

**Q.** Which results are given for `CS(=O)(=O)c1ccc(C2=C(c3ccccc3)C(=O)OC2)cc1` [rofecoxib, reference compound]?
**A.** PGE2 production [5]: reduced to the same extent; classification as fast-acting or slow-acting apoptosis inducer [1]: slow-acting apoptosis inducer

**Q.** With `Cc1ccc(C#N)cc1` [Compound 16b] as the compound, how does the “T½ (h) 50 μM” value ([1]; 50 μM, Table 2) read?
**A.** Its value is over 100 h.

**Q.** With `NS(=O)(=O)c1ccc(-n2nc(C(F)(F)F)cc2-c2cc(Cl)ccc2Cl)cc1` [Example 5] as the compound, how does the “T½ (h) 50 μM” value ([1]; 50 μM, Table 1) read?
**A.** The value was 3 h.

**Q.** With `Cc1ccc(C)c(C)c1` [Compound 21b] as the compound, how does the “T½ (h) 50 μM” value ([1]; 50 μM, Table 2) read?
**A.** The value was 2 h.

**Q.** With `Cc1ccco1` [Compound 26b] as the compound, how does the “T½ (h) 50 μM” value ([1]; 50 μM, Table 2) read?
**A.** Its value is over 100 h.

**Q.** For `Cc1ccc(-c2ccnn2-c2ccc(S(N)(=O)=O)cc2)cc1` [Compound 40b], which “activity in eliciting apoptosis in PC-3 cells (in words)” value ([1]; PC-3 cells) is on record?
**A.** Its value is “loss of high potency”.

**Q.** With `CS(=O)(=O)c1ccc(C2=C(c3ccccc3)COC2=O)cc1` [Compound 47b, 3-(4′-methylsulfonylphenyl)-4-phenyl-2(5H)-furanone] as the compound, how does the “activity in eliciting apoptosis in PC-3 cells (in words)” value ([1]; PC-3 cells) read?
**A.** Its value is “poor activity”.

**Q.** For `CS(=O)(=O)Nc1ccc([N+](=O)[O-])cc1OC1CCCCC1` [NS398, reference compound], which PGE2 production [5] is on record?
**A.** Its PGE2 production is “reduced to the same extent”.

**Q.** And the “classification as fast-acting or slow-acting apoptosis inducer” value [1]?
**A.** Its value is “slow-acting apoptosis inducer”.

**Q.** With `Cc1ccc(C)c(-c2cc(C(F)(F)F)nn2-c2ccc(S(N)(=O)=O)cc2)c1` [compound 7a, 4-[5-(2,5-dimethylphenyl)-3-(trifluoromethyl)-1H-pyrazol-1-yl]benzenesulfonamide] as the compound, how does the “time to 50% decrease in cell viability” value ([1]; 50 μM, PC-3 cells) read?
**A.** Its value is “within an hour”.

**Q.** With `COc1ccc(OC)c(C)c1` [Compound 23b] as the compound, how does the “T½ (h) 50 μM” value ([1]; 50 μM, Table 2) read?
**A.** Its value is over 100 h.

**Q.** With “4-[5-(2,5-Dichlorophenyl)-3-(trifluoromethyl)-1H-pyrazol-1-yl]benzene-carboxyamide [Compound 32b]” as the compound, how does the “change in potency in apoptosis induction” value [1] read?
**A.** Its value is “no appreciable change”.

**Q.** For `Fc1ccc(F)cc1` [Compound 5b], which “T½ (h) 50 μM” value ([1]; 50 μM, Table 2) is on record?
**A.** Its value is over 100 h.

**Q.** What does the source list for `Cc1ccc(C)c(-c2cc(C(F)(F)F)nn2-c2ccc(S(N)(=O)=O)cc2)c1` [Example 7]?
**A.** IC50 [6]: > 100 µM; T½ (h) 50 μM ([1]; 50 μM, Table 1): 1 h

**Q.** Which “T½ (h) 50 μM” value ([1]; 50 μM, Table 2) does the source give for `Cc1cc(Cl)sc1Cl` [Compound 29b] here?
**A.** Its value is over 100 h.
